From ChEMBL document CHEMBL4483862, “Open-source discovery of chemical leads for next-generation chemoprotective antimalarials” (2018)

Test system: Plasmodium berghei
Experiment: Luciferase/luciferin-expressing antifolate-resistant parasites were used to infect a culture of HepG2 cells that were pre-incubated with compounds. Infected hepatocytes emit light due to the luciferase reaction. Assay results are presented as the percent inhibition of light emission compared to control. […]
Type: functional
Conditions: sporozoite; for IC90: read-out: LUCIFERASE INFECTION ASSAY - IC90
[1] = PBLUC_HILL_SLOPE 1.24, PBLUC_R_SQUARED 0.639, read-out: LUCIFERASE INFECTION ASSAY - IC50

| Compound | IC90 | also measured |
| --- | --- | --- |
| Cc1cc(C(=O)Nc2ccc(Cl)cc2)c(C)n1-c1ccccc1 | 0.729 µM | IC50 (PBLUC_HILL_SLOPE 1.26, PBLUC_R_SQUARED 0.88, read-out: LUCIFERASE INFECTION ASSAY - IC50): 0.128 µM |
| C=CCn1c(C)cc(C(=O)CSc2ccc(NC(C)=O)cc2)c1C | 2.85 µM | IC50 (PBLUC_HILL_SLOPE 1.26, 1.79, PBLUC_R_SQUARED 0.402, 0.760, read-out: LUCIFERASE INFECTION ASSAY - IC50): 1.34 µM |
| O=C(COc1ccc(F)cc1)N1CCC(Cc2ccccc2)CC1 | > 10.1 µM | IC50 (PBLUC_HILL_SLOPE 1.27, PBLUC_R_SQUARED 0.405, read-out: LUCIFERASE INFECTION ASSAY - IC50): 4.23 µM |
| CC1CN(C(=O)c2ccc(S(=O)(=O)Nc3ccccc3F)cc2)CC(C)O1 (configuration not stated) | 5.97 µM | IC50 (PBLUC_HILL_SLOPE 1.2, PBLUC_R_SQUARED 0.687, read-out: LUCIFERASE INFECTION ASSAY - IC50): 0.955 µM |
| CSc1nc(N2CCNCC2)c2sc3c(c2n1)CCCC3 | > 10.3 µM | IC50 (PBLUC_HILL_SLOPE 1.21, PBLUC_R_SQUARED 0.0625, read-out: LUCIFERASE INFECTION ASSAY - IC50): > 10.3 µM |
| CS(=O)(=O)c1nc2ccccc2n1Cc1cc(=O)n2ccccc2n1 | > 10 µM | IC50 (PBLUC_HILL_SLOPE 1.24, PBLUC_R_SQUARED 0.679, read-out: LUCIFERASE INFECTION ASSAY - IC50): 5.51 µM |
| CNc1nc2cnc(Nc3ccc(C(F)(F)F)cc3)cc2n1CC1CC1 | > 10 µM | IC50 (PBLUC_HILL_SLOPE 1.2, PBLUC_R_SQUARED 0.377, read-out: LUCIFERASE INFECTION ASSAY - IC50): 2.12 µM |
| CSc1nnc(-c2ccc(C(C)(C)C)cc2)n1-c1ccc(Cl)cc1 | > 9.22 µM | IC50 (PBLUC_HILL_SLOPE 1.19, PBLUC_R_SQUARED 0.789, read-out: LUCIFERASE INFECTION ASSAY - IC50): > 9.22 µM |
| COC(=O)CSCCc1nc(-c2ccc(C(F)(F)F)cc2)cs1 | 8.8 µM | IC50 (PBLUC_HILL_SLOPE 1.19, PBLUC_R_SQUARED 0.68, read-out: LUCIFERASE INFECTION ASSAY - IC50): 1.39 µM |
| COc1cc2c(cc1OCC(=O)Nc1ccccc1Cl)C=CC(C)(C)O2 | > 8.83 µM | IC50 (PBLUC_HILL_SLOPE 1.25, PBLUC_R_SQUARED 0.511, read-out: LUCIFERASE INFECTION ASSAY - IC50): 4.17 µM |
| CN1/C(=C/C=C2c3ccccc3-c3ccccc32)C=Cc2ccccc21 | > 9.9 µM | IC50 (PBLUC_HILL_SLOPE 1.22, PBLUC_R_SQUARED 0.219, read-out: LUCIFERASE INFECTION ASSAY - IC50): 8.03 µM |
| CCC(C)c1ccc(S(=O)(=O)N(Cc2ccc(C(=O)NC3CC3)cc2)C2CC2)cc1 (configuration not stated) | 2.3 µM | IC50 (PBLUC_HILL_SLOPE 1.25, PBLUC_R_SQUARED 0.781, read-out: LUCIFERASE INFECTION ASSAY - IC50): 0.394 µM |
| COc1cc(CCC2CCN(CC(=O)c3c(N)n(C)c(=O)n(C)c3=O)CC2)cc(OC)c1 | > 10 µM | IC50 (PBLUC_HILL_SLOPE 1.27, PBLUC_R_SQUARED 0.409, read-out: LUCIFERASE INFECTION ASSAY - IC50): 5.13 µM |
| COc1cc(-c2nc3ccc(NC(=O)c4cccnc4)cn3n2)cc(OC)c1OC | > 10 µM | IC50 (PBLUC_HILL_SLOPE 1.26, PBLUC_R_SQUARED 0.59, read-out: LUCIFERASE INFECTION ASSAY - IC50): 6.96 µM |
| COc1ccc(-c2cc(NC(=O)C3CCN(C(=O)C(C)C)CC3)ccc2OC(F)F)cc1 | > 10 µM | IC50 (PBLUC_HILL_SLOPE 1.23, PBLUC_R_SQUARED 0.265, read-out: LUCIFERASE INFECTION ASSAY - IC50): 3.95 µM |
| O=C(O)C1C2C=CC(O2)C1C(=O)Nc1ccc(OC(F)(F)F)cc1 (configuration not stated) | > 9.61 µM | IC50 (PBLUC_HILL_SLOPE 1.22, PBLUC_R_SQUARED 0.106, read-out: LUCIFERASE INFECTION ASSAY - IC50): > 9.61 µM |
| Cc1ccc(S(=O)(=O)N(Cc2ccc(C(=O)NC3CC3)cc2)C2CC2)c(C)c1 | 0.498 µM | IC50 (PBLUC_HILL_SLOPE 1.22, PBLUC_R_SQUARED 0.762, read-out: LUCIFERASE INFECTION ASSAY - IC50): 0.0818 µM |
| CSc1sc(C(=O)N/N=C/c2ccccc2)c2c1C1(CCC2)SCCS1 | > 7.85 µM | IC50 (PBLUC_HILL_SLOPE 1.27, PBLUC_R_SQUARED 0.257, read-out: LUCIFERASE INFECTION ASSAY - IC50): 5.56 µM |
| COc1cc(OC)cc(-c2cc3c(Nc4ccc5c(c4)OCO5)nccc3[nH]2)c1 | 6.69 µM | IC50 (PBLUC_HILL_SLOPE 1.19, PBLUC_R_SQUARED 0.67, read-out: LUCIFERASE INFECTION ASSAY - IC50): 1.06 µM |
| O=C1C2=C(Nc3ccccc3SC2c2ccccc2F)c2ccccc21 (configuration not stated) | 2.61 µM | IC50 (PBLUC_HILL_SLOPE 1.25, PBLUC_R_SQUARED 0.725, read-out: LUCIFERASE INFECTION ASSAY - IC50): 0.454 µM |
| COc1ccc(-c2nc(C(=O)Nc3ccccc3N3CCN(C)CC3)cs2)cc1OC | > 10 µM | IC50 [1]: 2.33 µM |

| Compound | IC90 | also measured |
| --- | --- | --- |
| c1ccc(CCCNc2nnnn2-c2ccccc2)cc1 | > 10 µM | IC50 (PBLUC_HILL_SLOPE 1.25, PBLUC_R_SQUARED 0.199, read-out: LUCIFERASE INFECTION ASSAY - IC50): 6.08 µM |
| COc1ccccc1-c1cc(C(=O)NCC(C)c2ccccc2)no1 (configuration not stated) | > 10 µM | IC50 (PBLUC_HILL_SLOPE 1.24, PBLUC_R_SQUARED 0.652, read-out: LUCIFERASE INFECTION ASSAY - IC50): 3.42 µM |
| Cc1ccc(Cn2ccs/c2=N/C(=O)c2cc3c(s2)CCCCC3)cc1 | 0.491 µM | IC50 (PBLUC_HILL_SLOPE 1.2, PBLUC_R_SQUARED 0.823, read-out: LUCIFERASE INFECTION ASSAY - IC50): 0.0784 µM |
| Cc1oc(-c2ccc(Cl)cc2)cc1C(=O)Nc1cc(-c2cc(C(C)(C)C)oc2C)nn1-c1cc(C(F)(F)F)cc(C(F)(F)F)c1 | > 5.08 µM | IC50 (PBLUC_HILL_SLOPE 1.26, PBLUC_R_SQUARED 0.137, read-out: LUCIFERASE INFECTION ASSAY - IC50): > 5.08 µM |
| CCc1ccc(S(=O)(=O)Nc2cc(Sc3ccc(C)cc3)c(O)c3ccccc23)cc1 | > 10 µM | IC50 (PBLUC_HILL_SLOPE 1.24, PBLUC_R_SQUARED 0.466, read-out: LUCIFERASE INFECTION ASSAY - IC50): 5.98 µM |
| CCc1ccccc1Nc1nc(N)nc(CN2CCc3ccccc32)n1 | > 10 µM | IC50 (PBLUC_HILL_SLOPE 1.23, PBLUC_R_SQUARED 0.247, read-out: LUCIFERASE INFECTION ASSAY - IC50): 5.31 µM |
| O=C(NC12CC3CC(CC(C3)C1)C2)c1ccc(=O)n(Cc2ccccc2)n1 | > 10 µM | IC50 (PBLUC_HILL_SLOPE 1.2, PBLUC_R_SQUARED 0.803, read-out: LUCIFERASE INFECTION ASSAY - IC50): 5.96 µM |
| NC(=O)c1ccc(CN(C2CC2)S(=O)(=O)c2ccc3c(c2)CCC3)cc1 | > 10 µM | IC50 (PBLUC_HILL_SLOPE 1.27, PBLUC_R_SQUARED 0.0564, read-out: LUCIFERASE INFECTION ASSAY - IC50): > 10 µM |
| CC(C)(C)c1ccc(NC(=O)c2cc(-c3ccccc3)ncn2)cc1 | > 9.96 µM | IC50 (PBLUC_HILL_SLOPE 1.26, PBLUC_R_SQUARED 0.612, read-out: LUCIFERASE INFECTION ASSAY - IC50): 2.29 µM |
| CC(=O)N(c1nc(/C=C/C(=O)c2cccc(Br)c2)cs1)c1ccc(F)cc1F | > 10 µM | IC50 (PBLUC_HILL_SLOPE 1.24, PBLUC_R_SQUARED 0.477, read-out: LUCIFERASE INFECTION ASSAY - IC50): 8.87 µM |
| c1ccc(-c2nn(-c3ccccc3)cc2CSc2nncs2)cc1 | > 10 µM | IC50 [1]: 5.72 µM |
| O=C(Nc1ccccc1)Nc1ccc2cc(C(=O)c3ccccc3O)cnc2c1 | 4.81 µM | IC50 (PBLUC_HILL_SLOPE 1.23, 8.91, PBLUC_R_SQUARED 0.971, 0.189, read-out: LUCIFERASE INFECTION ASSAY - IC50): 3.52 µM |
| O=C(Nc1ccc(N2CCCCC2)c(C(F)(F)F)c1)c1ccc(-n2nncc2-c2ccc(Cl)cc2)cc1 | > 10 µM | IC50 (PBLUC_HILL_SLOPE 1.22, PBLUC_R_SQUARED 0.481, read-out: LUCIFERASE INFECTION ASSAY - IC50): 4.69 µM |
| Cc1ccc(CSCCNC(=O)c2ccc3c[nH]nc3c2)cc1 | > 10 µM | IC50 (PBLUC_HILL_SLOPE 1.22, PBLUC_R_SQUARED 0.508, read-out: LUCIFERASE INFECTION ASSAY - IC50): 4.61 µM |
| Cc1cccc(Cn2nc(C(C)(C)C)cc2C(=O)Nc2cccc(OC(F)(F)F)c2)c1 | > 7.65 µM | IC50 (PBLUC_HILL_SLOPE 1.23, PBLUC_R_SQUARED 0.161, read-out: LUCIFERASE INFECTION ASSAY - IC50): > 7.65 µM |
| Cc1cc2c(cc1C)NC(c1ccc(Br)cc1)C1C(=O)CCCC1=N2 (configuration not stated) | > 8.31 µM | IC50 (PBLUC_HILL_SLOPE 1.27, PBLUC_R_SQUARED 0.271, read-out: LUCIFERASE INFECTION ASSAY - IC50): 6.95 µM |
| Cc1ccc(-n2cccc2)c(NC(=O)c2c(-c3c(Cl)cccc3Cl)noc2C)c1 | > 7.74 µM | IC50 (PBLUC_HILL_SLOPE 1.2, PBLUC_R_SQUARED 0.354, read-out: LUCIFERASE INFECTION ASSAY - IC50): 4.14 µM |
| COc1ccccc1CNC(=O)N/C=C/c1ccccc1Cl | > 10.4 µM | IC50 (PBLUC_HILL_SLOPE 1.23, PBLUC_R_SQUARED 0.697, read-out: LUCIFERASE INFECTION ASSAY - IC50): 5.38 µM |
| Cc1ccc(-c2noc(-c3csc([C@@H]4C[C@H](O)[C@@H](CO)O4)n3)n2)cc1 | > 9.18 µM | IC50 (PBLUC_HILL_SLOPE 1.21, PBLUC_R_SQUARED 0.165, read-out: LUCIFERASE INFECTION ASSAY - IC50): 3.59 µM |
| CN(C)C(=O)c1cccc(-c2cn3c(-c4ccc(C(C)(C)C)cc4)cnc3cn2)c1 | > 8.28 µM | IC50 (PBLUC_HILL_SLOPE 1.19, PBLUC_R_SQUARED 0.783, read-out: LUCIFERASE INFECTION ASSAY - IC50): 2.27 µM |
